Patent US7247644B2, “Ester derivatives of a decahydroisoquinoline-3-carboxylic acid as analgestics” (Eli Lilly and Company, priority 2003, dated 2007)

Tests used:
Format in all cases: in vivo
[1] = Bioavailability in Rats: plasma concentrations of parent acid by LC/MS/MS; details: male, rat, iv; Compound A in plasma, Fischer rats, 10 mg/kg
Procedure: (§1) Percent bioavailability is determined using the following equation:
(§2) [formula] wherein AUC represents the area under the curve, p.o. represents oral dose, and i.v. represents intravenous dose. Bioavailability in Dogs:
Male Fischer Rats are administered either an oral or iv dose of (3S,[…])-6-[2-(1(2)H-tetrazole-5-yl)ethyl-1,2,3,4,4a,5,6,7,8,8a-decahydroisoquinoline-3-carboxylic acid (10 mg/Kg) to determine oral bioavailability. A separate group of rats are administered an oral 10 mg/kg dose of an ester prodrug (for example (3S,4aR,6R,8aR)-6-[2-(1(2)H-tetrazole-5-yl)ethyl-1,2,3,4,4a,5,6,7,8,8a-decahydroisoquinoline-3-carboxylic acid ethyl ester, HCL salt) to determine whether the prodrug would increase bioavailability of the parent acid. The plasma concentrations of (3S,4aR,6R,8aR)-6-[2-(1(2)H-tetrazole-5-yl)ethyl-1,2,3,4,4a,5,6,7,8,8a-decahydroisoquinoline-3-carboxylic acid are determined by LC/MS/MS.

[2] = Bioavailability in Cynomolgus Monkeys: plasma concentrations of parent acid by LC/MS/MS; details: both sexes, cynomolgus monkey, iv, 0.3 mg/kg, Compound A in plasma, .3 mg/kg
Procedure: as §1, §2
Two male and two female monkeys are administered an oral, and later, an iv dose of (3S,4aR,6R,8aR)-6-[2-(1(2)H-tetrazole-5-yl)ethyl-1,2,3,4,4a,5,6,7,8,8a-decahydroisoquinoline-3-carboxylic acid (oral: 3 mg/kg; iv: 0.3 mg/kg) to determine oral bioavailability. The same animals are also subsequently administered an oral 3 mg/kg dose of (3S,4aR,6R,8aR)-6-[2-(1(2)H-tetrazole-5-yl)ethyl-1,2,3,4,4a,5,6,7,8,8a-decahydroisoquinoline-3-carboxylic acid ethyl ester to determine if the ester prodrug form increases bioavailability of the parent acid. The plasma concentrations of the parent acid are determined by LC/MS/MS.
Four cynomolgus monkeys (2/sex) are given a single oral dose of (3S,4aR,6R,8aR)-6-[2-(1(2)H-tetrazole-5-yl)ethyl-1,2,3,4,4a,5,6,7,8,8a-decahydroisoquinoline-3-carboxylic acid (3 mg/kg) on day 0, a single iv dose of (3S,4aR,6R,8aR)-6-[2-(1(2)H-tetrazole-5-yl)ethyl-1,2,3,4,4a,5,6,7,8,8a-decahydroisoquinoline-3-carboxylic acid (0.3 mg/kg) on day 4 and a single oral dose of (3S,4aR,6R,8aR)-6-[2-(1(2)H-tetrazole-5-yl)ethyl-1,2,3,4,4a,5,6,7,8,8a-decahydroisoquinoline-3-carboxylic acid ethyl ester (3 mg/kg) on day 8. […]

[3] = Bioavailability in Dogs: plasma concentrations of parent acid by LC/MS/MS; details: both sexes, dog, iv; Compound A in plasma, Beagle dogs, 1 mg/kg
Procedure: as §1, §2
Beagle dogs (2 male and 1 female) are administered an oral dose, and later an iv dose of (3S,4aR,6R,8aR)-6-[2-(1(2)H-tetrazole-5-yl)ethyl-1,2,3,4,4a,5,6,7,8,8a-decahydroisoquinoline-3-carboxylic acid (10 mg/Kg p.o; 1 mg/Kg i.v.) to determine oral bioavailability. Subsequently, the same three dogs are administered an oral 10 mg/kg dose of an ester prodrug (for example (3S,4aR,6R,8aR)-6-[2-(1(2)H-tetrazole-5-yl)ethyl-1,2,3,4,4a,5,6,7,8,8a-decahydroisoquinoline-3-carboxylic acid ethyl ester, HCL salt) to determine whether the prodrug would increase bioavailability of the parent acid. The plasma concentrations of (3S,4aR,6R,8aR)-6-[2-(1(2)H-tetrazole-5-yl)ethyl-1,2,3,4,4a,5,6,7,8,8a-decahydroisoquinoline-3-carboxylic acid are determined by LC/MS/MS.
Live Phase: (3S,4aR,6R,8aR)-6-[2-(1(2)H-tetrazole-5-yl)ethyl-1,2,3,4,4a,5,6,7,8,8a-decahydroisoquinoline-3-carboxylic acid (HCl salt) is dissolved in dilute sodium hydroxide for oral administration (30 mg/ml) and in 10% ethanol/water for iv administration (10 mg/ml). […]

O=C(O)[C@@H]1C[C@H]2C[C@@H](CCc3nn[nH]n3)CC[C@H]2CN1 [Compound A]
AUC [1]: 6730 ng·h/mL | Cmax [1]: 11000 ng/mL | AUC [2]: 1080 ng·h/mL | Cmax [2]: 1620 ng/mL | AUC [3]: 4220 ng·h/mL | Cmax [3]: 2820 ng/mL
